This passage reports IC50, Ratio IC50 and inhibition results from ChEMBL document CHEMBL4004782, “A review on tacrine-based scaffolds as multi-target drugs (MTDLs) for Alzheimer's disease” (Eur J Med Chem, 2017).

Assay [1] has as its target T1, Acetylcholinesterase (Rattus norvegicus, UniProt P37136).
T1 sequence (P37136 whole entry): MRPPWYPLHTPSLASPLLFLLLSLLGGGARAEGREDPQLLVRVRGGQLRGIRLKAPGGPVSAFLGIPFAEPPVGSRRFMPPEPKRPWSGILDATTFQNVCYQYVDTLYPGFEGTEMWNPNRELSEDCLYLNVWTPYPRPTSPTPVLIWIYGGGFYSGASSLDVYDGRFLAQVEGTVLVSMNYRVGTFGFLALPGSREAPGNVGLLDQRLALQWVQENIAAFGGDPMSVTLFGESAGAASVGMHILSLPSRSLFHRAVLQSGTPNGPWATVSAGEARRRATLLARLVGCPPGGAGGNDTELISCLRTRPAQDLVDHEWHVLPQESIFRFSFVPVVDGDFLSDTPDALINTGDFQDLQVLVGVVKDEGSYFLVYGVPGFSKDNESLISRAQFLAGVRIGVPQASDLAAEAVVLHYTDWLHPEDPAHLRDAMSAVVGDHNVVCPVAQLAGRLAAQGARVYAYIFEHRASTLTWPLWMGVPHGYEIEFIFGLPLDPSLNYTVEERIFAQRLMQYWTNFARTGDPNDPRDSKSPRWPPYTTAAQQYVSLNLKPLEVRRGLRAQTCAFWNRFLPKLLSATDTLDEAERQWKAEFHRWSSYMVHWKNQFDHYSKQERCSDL
Kind of assay: Inhibition of rat cortex AchE using acetylthiocholine iodide as substrate by Ellman's method.

Assay [2] in a line: Selectivity index, ratio of IC50 for human serum BChE to IC50 for rat cortex AchE.
Assay [3] deals with T2, Acetylcholinesterase (Bos taurus) (UniProt P23795).
T2 sequence (whole entry): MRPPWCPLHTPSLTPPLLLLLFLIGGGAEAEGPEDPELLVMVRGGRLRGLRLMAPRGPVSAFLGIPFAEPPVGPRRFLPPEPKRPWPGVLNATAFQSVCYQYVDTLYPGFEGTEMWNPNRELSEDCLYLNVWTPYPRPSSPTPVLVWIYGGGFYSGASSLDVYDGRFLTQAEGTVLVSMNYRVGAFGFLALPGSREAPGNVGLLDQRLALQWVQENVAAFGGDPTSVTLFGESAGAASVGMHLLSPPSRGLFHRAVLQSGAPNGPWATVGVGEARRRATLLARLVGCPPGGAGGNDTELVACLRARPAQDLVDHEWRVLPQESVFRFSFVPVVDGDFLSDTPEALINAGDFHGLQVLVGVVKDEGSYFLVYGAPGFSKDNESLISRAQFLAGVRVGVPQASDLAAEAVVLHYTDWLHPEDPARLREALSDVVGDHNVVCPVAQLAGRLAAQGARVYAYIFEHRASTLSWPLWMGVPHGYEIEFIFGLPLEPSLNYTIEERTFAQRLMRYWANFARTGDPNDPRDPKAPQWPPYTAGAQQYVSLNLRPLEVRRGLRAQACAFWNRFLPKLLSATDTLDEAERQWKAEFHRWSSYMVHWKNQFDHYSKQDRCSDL
Kind of assay: Displacement of propidium iodide from bovine erythrocyte AchE at 0.3 uM incubated for 6 hrs followed by addition of propidium iodide and measured after 15 mins by thioflavin T-fluorescence assay.

In assay [4] the target is T2, Acetylcholinesterase (Bos taurus). Kind of assay: Displacement of propidium iodide from bovine erythrocyte AchE at 1 uM incubated for 6 hrs followed by addition of propidium iodide and measured after 15 mins by thioflavin T-fluorescence assay.
Assay [5] shares this target. Kind of assay: Displacement of propidium iodide from bovine erythrocyte AchE at 3 uM incubated for 6 hrs followed by addition of propidium iodide and measured after 15 mins by thioflavin T-fluorescence assay.
The target of assay [6] is T3, Acetylcholinesterase (Bos taurus, UniProt P23795).
T3 sequence (P23795 whole entry): T2 sequence (whole entry)
Nature of the assay: Inhibition of bovine erythrocyte AchE using acetylthiocholine as substrate by Ellman's method. Background: In Ellman's method for cholinesterases, released thiocholine reacts with DTNB.

Another assay has as its target Cholinesterase (Homo sapiens, UniProt P06276). Kind of assay: Inhibition of BuChE (unknown origin).
In assay [7] the target is Acetylcholinesterase (Homo sapiens, UniProt P22303). Kind of assay: Inhibition of human AchE-induced amyloid beta (1 to 40) aggregation after 48 hrs by thioflavin T fluorescence spectroscopic method.
Acetylcholinesterase (Homo sapiens, UniProt P22303), sequence (P22303 whole entry): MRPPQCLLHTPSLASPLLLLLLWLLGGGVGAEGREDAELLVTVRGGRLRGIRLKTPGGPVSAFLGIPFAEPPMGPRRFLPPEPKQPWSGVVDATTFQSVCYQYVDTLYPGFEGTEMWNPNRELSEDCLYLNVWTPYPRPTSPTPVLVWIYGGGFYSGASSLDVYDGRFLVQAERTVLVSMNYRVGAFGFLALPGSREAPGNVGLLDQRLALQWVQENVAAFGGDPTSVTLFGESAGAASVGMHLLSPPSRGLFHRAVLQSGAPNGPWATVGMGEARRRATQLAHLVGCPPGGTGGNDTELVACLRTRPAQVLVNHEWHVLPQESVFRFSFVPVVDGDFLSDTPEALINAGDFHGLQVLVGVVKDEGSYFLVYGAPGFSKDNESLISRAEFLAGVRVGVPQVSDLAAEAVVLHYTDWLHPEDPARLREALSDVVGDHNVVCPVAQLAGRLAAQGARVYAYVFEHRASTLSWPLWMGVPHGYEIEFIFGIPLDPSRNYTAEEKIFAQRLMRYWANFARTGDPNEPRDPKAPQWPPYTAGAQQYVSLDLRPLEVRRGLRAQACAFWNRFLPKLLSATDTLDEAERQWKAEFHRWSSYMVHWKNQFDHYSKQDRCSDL

Cholinesterase, sequence (P06276 whole entry): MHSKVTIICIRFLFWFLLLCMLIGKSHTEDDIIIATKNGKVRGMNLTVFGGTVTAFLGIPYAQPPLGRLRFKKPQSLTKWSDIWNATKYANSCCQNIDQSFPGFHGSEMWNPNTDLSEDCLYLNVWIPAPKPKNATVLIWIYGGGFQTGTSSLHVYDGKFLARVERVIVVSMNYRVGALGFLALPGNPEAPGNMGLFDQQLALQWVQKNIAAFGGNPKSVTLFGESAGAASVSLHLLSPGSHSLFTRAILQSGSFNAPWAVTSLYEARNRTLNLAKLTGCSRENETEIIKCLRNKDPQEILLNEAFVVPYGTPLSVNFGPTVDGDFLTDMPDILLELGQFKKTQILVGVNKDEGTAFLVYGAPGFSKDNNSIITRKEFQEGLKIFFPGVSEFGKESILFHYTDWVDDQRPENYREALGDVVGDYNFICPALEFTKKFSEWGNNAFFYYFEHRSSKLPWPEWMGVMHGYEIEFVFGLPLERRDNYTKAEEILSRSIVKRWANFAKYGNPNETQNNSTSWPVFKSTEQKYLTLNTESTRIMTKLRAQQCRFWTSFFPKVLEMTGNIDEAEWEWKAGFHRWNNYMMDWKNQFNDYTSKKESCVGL

The IC50 is the point on the concentration scale where inhibition reaches its midpoint. Low readings indicate inhibition by little substance, high ones a need for much substance. `Clc1ccc2c(NCCCCCCCCCNc3c4c(nc5c3CCCC5)CCCC4)c3c(nc2c1)CCCC3`: at Acetylcholinesterase [1], half-maximal inhibition (IC50) required 300 pM. In addition, in assay [2], the Ratio IC50 stood at 647.
Regarding `Clc1ccc2c(NCCCCCCCCNc3c4c(nc5ccccc35)CCCC4)c3c(nc2c1)CCCC3`, at Acetylcholinesterase [1], the IC50 was found to be 70 pM. Further, the Ratio IC50 in assay [2] is 371.
Broadly, the inhibition is the relative decrease from the control value, in per cent. Read a low inhibition as a response near the control. For the compound `O=C(CCCCCCNc1c2c(nc3cc(Cl)ccc13)CCCC2)NCCc1c[nH]c2ccccc12`, the inhibition in assay [3] came to 42%; in assay [4], 34%; in assay [5], 35%.
In turn, `O=C(CCCCCNc1c2c(nc3ccccc13)CCCC2)NCCc1c[nH]c2ccccc12` yielded an IC50 on Acetylcholinesterase [6] of 1000 pM. The inhibition in assay [3] stood at 42%; in assay [4], 34%; in assay [5], 35%.
`Cc1c(C)c2c(c(C)c1O)CCC(C)(C(=O)NCCCCCCCCNc1c3c(nc4cc(Cl)ccc14)CCCC3)O2` (stereo not given) registered a concentration for half-maximal inhibition (IC50) against Cholinesterase of 54000 pM.
`O=C(CCCC1CCSS1)NCCCNc1c2c(nc3cc(Cl)ccc13)CCCC2` (stereo not given) registered an IC50 against Acetylcholinesterase [7] of 253000 pM.
In the case of `c1ccc2c(NCCCCCCCCNc3c4c(nc5c3CCCC5)CCCC4)c3c(nc2c1)CCCC3`, half-maximal inhibition on Acetylcholinesterase [1] (IC50) required 200 pM. In addition, the Ratio IC50 in assay [2] turned out to be 221.
